Laboratory results: the NIST ThermoML archive (doi:10.1016/j.jct.2014.03.023)

What was measured:
[1] = molar heat capacity at constant pressure; conditions: 101 kPa, Liquid, Small sample (50 mg) DSC
[2] = Pendant drop shape
[3] = wn = mass fraction of the nth substance listed; conditions: Pendant drop shape, w1 = 1

CC[n+]1ccc(C)cc1.O=S(=O)([N-]S(=O)(=O)C(F)(F)F)C(F)(F)F
Conditions	molar heat capacity at constant pressure [J/K/mol]	surface tension liquid-gas [mN/m]
[1], 296.2 K	627	–
[1], 300.2 K	634	–
[1], 304.2 K	637	–
[1], 308.2 K	640	–
[1], 312.2 K	644	–
[1], 316.2 K	647	–
[1], 320.2 K	649	–
[1], 324.2 K	652	–
[1], 328.2 K	655	–
[1], 332.2 K	659	–
[1], 336.2 K	665	–
[1], 340.2 K	669	–
[1], 344.2 K	674	–
[1], 348.2 K	679	–
[1], 352.2 K	685	–
[1], 356.2 K	691	–
[1], 360.2 K	697	–
[1], 364.2 K	703	–
[1], 368.2 K	708	–
[1], 372.2 K	715	–
[2], 298.2 K	–	24.3
[2], 303.2 K	–	23.9
[2], 313.2 K	–	23.1
[2], 323.2 K	–	22.2

CCn1cc[n+](C)c1.N#CN=C=[N-] [1-ethyl-3-methylimidazolium dicyanamide]
[2]
Conditions	surface tension liquid-gas [mN/m]
298.2 K	56.4
303.2 K	56
313.2 K	54.8
323.2 K	53.5

CCn1cc[n+](C)c1.N#CN=C=[N-] [1-ethyl-3-methylimidazolium dicyanamide] + CC[n+]1ccc(C)cc1.O=S(=O)([N-]S(=O)(=O)C(F)(F)F)C(F)(F)F
[3]
Conditions	surface tension liquid-gas [mN/m]
298.2 K	56.4
303.2 K	56
313.2 K	54.8
323.2 K	53.5
